Source: ChEMBL document CHEMBL2040737, “Synthesis and biological evaluation of novel 2-(2-arylmethylene)hydrazinyl-4-aminoquinazoline derivatives as potent antitumor agents” (Eur J Med Chem, 2012)

Experiments:
NCI-H460 = test: Cytotoxicity against human H460 cells after 72 hrs by MTT assay; assay type: functional, cell-based; settings: NCI-H460, 72 h
HT-29 [1] = test: Cytotoxicity against human HT-29 cells after 72 hrs by MTT assay; assay type: functional, cell-based; settings: HT-29, 72 h
HepG2 [2] = test: Cytotoxicity against human HepG2 cells after 72 hrs by MTT assay; assay type: functional, cell-based; settings: HepG2, 72 h
SGC-7901 = test: Cytotoxicity against human SGC7901 cells after 72 hrs by MTT assay; assay type: functional, cell-based; settings: SGC-7901, 72 h
HT-29 [3] = test: Ratio of iressa IC50 to compound IC50 for human HT-29 cells; assay type: functional
HepG2 [4] = test: Ratio of iressa IC50 to compound IC50 for human HepG2 cells; assay type: functional

Row | Compound | IC50 (NCI-H460) [nM] | IC50 (HT-29 [1]) [nM] | IC50 (HepG2 [2]) [nM] | IC50 (SGC-7901) [nM] | Ratio IC50 (HT-29 [3]) | Ratio IC50 (HepG2 [4])
1 | CN(C)CCNc1nc(N/N=C/c2ccc(Cl)cc2)nc2ccccc12 | 3250 | 210 | 370 | 970 | – | –
2 | CN(C)CCNc1nc(N/N=C/c2ccc(F)cc2)nc2ccccc12 | 5680 | 1530 | 1820 | 4100 | – | –
3 | CN(C)CCNc1nc(N/N=C/c2ccc(F)cc2Cl)nc2ccccc12 | 1760 | 330 | 680 | 1680 | – | –
4 | CN(C)CCCNc1nc(N/N=C/c2ccc(Cl)cc2)nc2ccccc12 | 1490 | 270 | 550 | 1730 | – | –
5 | CN(C)CCCNc1nc(N/N=C/c2ccc(F)cc2)nc2ccccc12 | 4090 | 870 | 880 | 2760 | – | –
6 | CN(C)CCCNc1nc(N/N=C/c2ccc(F)cc2Cl)nc2ccccc12 | 1800 | 1150 | 670 | 1660 | – | –
7 | Clc1ccc(/C=N/Nc2nc(NCCCN3CCOCC3)c3ccccc3n2)cc1 | 4000 | 610 | 1740 | 3550 | – | –
8 | Fc1ccc(/C=N/Nc2nc(NCCCN3CCOCC3)c3ccccc3n2)cc1 | 5870 | 2190 | 4020 | 6770 | – | –
9 | Oc1ccccc1/C=N/Nc1nc(NCCCN2CCOCC2)c2ccccc2n1 | 2950 | 2080 | 3830 | 3210 | – | –
10 | Oc1cccc(/C=N/Nc2nc(NCCCN3CCOCC3)c3ccccc3n2)c1 | 4670 | 6320 | 6490 | 4900 | – | –
11 | CN1CCC(Nc2nc(N/N=C/c3ccc(Cl)cc3)nc3ccccc23)CC1 | 210 | 23 | 170 | 1320 | – | –
12 | CN1CCC(Nc2nc(N/N=C/c3ccc(F)cc3)nc3ccccc23)CC1 | 2640 | 1410 | 1950 | 1760 | – | –
13 | CN1CCC(Nc2nc(N/N=C/c3ccc(F)cc3Cl)nc3ccccc23)CC1 | 610 | 270 | 1120 | 1630 | – | –
14 | COc1ccc(OC)c(/C=N/Nc2nc(NC3CCN(C)CC3)c3ccccc3n2)c1 | 4760 | 2830 | 7170 | 4240 | – | –
15 | CN(C)CCNc1nc(N/N=C/c2nccn2Cc2ccccc2)nc2ccccc12 | 9650 | 2620 | 9600 | 4300 | – | –
16 | Cc1ccc(Cn2ccnc2/C=N/Nc2nc(NCCN(C)C)c3ccccc3n2)cc1 | 4200 | 1410 | 2980 | 2750 | – | –

Row | Compound | IC50 (NCI-H460) [nM] | IC50 (HT-29 [1]) [nM] | IC50 (HepG2 [2]) [nM] | IC50 (SGC-7901) [nM] | Ratio IC50 (HT-29 [3]) | Ratio IC50 (HepG2 [4])
17 | CN(C)CCNc1nc(N/N=C/c2nccn2Cc2ccc(F)cc2)nc2ccccc12 | 1050 | 930 | 3060 | 2420 | – | –
18 | CN(C)CCNc1nc(N/N=C/c2nccn2Cc2cccc(Cl)c2Cl)nc2ccccc12 | 870 | 260 | 670 | 1850 | – | –
19 | CN(C)CCCNc1nc(N/N=C/c2nccn2Cc2ccccc2)nc2ccccc12 | 4670 | 1980 | 4040 | 2130 | – | –
20 | Cc1ccc(Cn2ccnc2/C=N/Nc2nc(NCCCN(C)C)c3ccccc3n2)cc1 | 1690 | 2440 | 3680 | 2600 | – | –
21 | CN(C)CCCNc1nc(N/N=C/c2nccn2Cc2ccc(F)cc2)nc2ccccc12 | 640 | 630 | 2860 | 3510 | – | –
22 | CN(C)CCCNc1nc(N/N=C/c2nccn2Cc2cccc(Cl)c2Cl)nc2ccccc12 | 430 | 360 | 850 | 1170 | – | –
23 | C(=N\Nc1nc(NCCCN2CCOCC2)c2ccccc2n1)/c1nccn1Cc1ccccc1 | 4030 | 2840 | 4800 | 3960 | – | –
24 | Cc1ccc(Cn2ccnc2/C=N/Nc2nc(NCCCN3CCOCC3)c3ccccc3n2)cc1 | 3760 | 3160 | 3190 | 3020 | – | –
25 | Fc1ccc(Cn2ccnc2/C=N/Nc2nc(NCCCN3CCOCC3)c3ccccc3n2)cc1 | 2470 | 930 | 2210 | 1920 | – | –
26 | Clc1cccc(Cn2ccnc2/C=N/Nc2nc(NCCCN3CCOCC3)c3ccccc3n2)c1Cl | 910 | 720 | 1250 | 2660 | – | –
27 | CN1CCC(Nc2nc(N/N=C/c3nccn3Cc3ccccc3)nc3ccccc23)CC1 | 1030 | 750 | 1420 | 1380 | – | –
28 | Cc1ccc(Cn2ccnc2/C=N/Nc2nc(NC3CCN(C)CC3)c3ccccc3n2)cc1 | 770 | 200 | 1230 | 960 | – | –
29 | CN1CCC(Nc2nc(N/N=C/c3nccn3Cc3ccc(F)cc3)nc3ccccc23)CC1 | 210 | 650 | 980 | 780 | – | –
30 | CN1CCC(Nc2nc(N/N=C/c3nccn3Cc3cccc(Cl)c3Cl)nc3ccccc23)CC1 | 31 | 15 | 530 | 580 | 224 | 12
31 | Cc1ccc(-c2cc(NCCN(C)C)c3ccccc3n2)cc1 | 3520 | 1350 | 2060 | 4920 | – | –
